Laboratory results reported in patent US6559339B1, “Method for crystallizing carboxylic acid” (Rhodia Fiber & Resin Intermediates, priority 1998, dated 2003).
Values belong to the molecule of their own block, whether it stands above or below them.

Assay: heating test: absorbance at 454 nm of ammonium adipate solutions after heating the adipic acid batches
Format: physicochemical
Conditions: 50 g heated to 215° C. for 205 min, then placed in 415 ml aqueous 5% ammonia solution, reference adipic acid (A) = 1
Description: The adipic acid batches (A) and (B) are subjected to a heating test. This test consists in heating 50 g of each batch to 215° C. for 205 min and then placing each of them in 415 ml of aqueous 5% ammonia solution. The absorbence at 454 nm of the ammonium adipate solutions obtained is then measured.
The results below are obtained, expressed as relative absorbences, the reference adipic acid (A) representing the value 1:
This test consists in heating 50 g of each batch to 215° C. for 205 min and then placing each of them in 415 ml of aqueous 5% ammonia solution.
The absorbance at 454 nm of the ammonium adipate solutions obtained is then measured.
The following results are obtained, expressed as relative absorbances, the reference adipic acid (A) representing the value 1: […]

relative absorbence at 454 nm: 0.25
Compound: O=C(O)CCCCC(=O)O [adipic acid (B), adipic acid]

Relative absorbance at 454 nm (listed as E): 0.5
Compound: O=C(O)CCCCC(=O)O [adipic acid (E), adipic acid]

Relative absorbance at 454 nm: 1 | relative absorbence at 454 nm: 1
Compound: O=C(O)CCCCC(=O)O [adipic acid (A), adipic acid, reference compound]

Relative absorbance at 454 nm (listed as D): 0.2
Compound: O=C(O)CCCCC(=O)O [adipic acid (D), adipic acid]

Relative absorbance at 454 nm (listed as C): 0.3
Compound: O=C(O)CCCCC(=O)O [adipic acid (C), adipic acid]
